Laboratory results: PubChem BioAssay AID179 (DTP/NCI, 2004)
Where “and” joins values, the source holds several entries; their conditions need not be identical. Equal values may be shown once. Calls of active or inactive are those of the source.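 How the source made its calls: active means compounds giving half or more protection of infected cells from virus-caused growth loss, again on retest; inactive means the rest.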 Where a SMILES comes first, the peptide text is derived from it. Bridges are numbered along the chain shown (N, C = ends).

System: CEM cells HIV-1 protection, formazan growth assay
Assay: NCI AIDS Antiviral Assay
Settings: for IC50: measured here: growth of uninfected CEM cells
Procedure, shortened: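 Human CEM cells, uninfected and HIV-1-infected, received five drug concentrations, and growth was read by soluble formazan assay. Compounds giving at least 50% protection were retested; reproducible 100% protection defined confirmed active.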

Row | SMILES | EC50 | IC50 | outcome
1 | CN(C)C(=O)N(CCC#N)CCN(C(=O)N(C)C)c1ccccc1 | > 200 µM | > 200 µM | –
2 | CCOC(=O)N/N=C(/N)c1cccc(Br)c1 | > 200 µM | > 200 µM | –
3 | CC(=O)NC(CCCN(Cc1ccccc1)C(=O)N(C)N=O)C(=O)NCc1ccccc1 (stereo not drawn) | > 112 µM | > 112 µM | –
4 | COc1cc(/C=C/C(=N\NC(N)=S)c2sc(NNC(C)=O)nc2C)ccc1O | > 77.6 µM | 69.2 µM | –
5 | O=P(O)(O)OC1C(OP(=O)(O)O)C(OP(=O)(O)O)C(OP(=O)(O)O)C(OP(=O)(O)O)C1OP(=O)(O)O.[Zn+2] (stereo not drawn) | > 100 µM | > 100 µM | –
6 | Cc1n[nH]c(=O)n1N1C(=O)c2ccccc2C1=O | > 200 µM | > 200 µM | –
7 | O=C1CSC(Cc2nc3ccccc3o2)=N1 | > 200 µM | 4.79 µM | –
8 | COc1ccc(N2CCCSC2=S)cc1 | > 200 µM | > 200 µM | –
9 | COC(=O)C1CC(F)(F)[C@H]1n1cnc2c(N)ncnc21 (stereo partly drawn) | > 240 µM | > 240 µM | –
10 | Cc1cc2nn(C3CCCCO3)nc2cc1C (stereo not drawn) | > 200 µM | > 200 µM | –
11 | S=C(N/N=C/c1ccccn1)N1CC2CCC(CC2)C1 | > 200 µM | 0.0631 µM | –
12 | Cc1cc2c(cc1C)C(=O)C1(C2)Cc2c(ccc(C)c2C)C1=O (stereo not drawn) | > 100 µM | > 100 µM | –
13 | COC(=O)/C(=N\NC(N)=S)C(C(=O)OC)C(=O)C(=O)Nc1ccc(C)cc1 (stereo not drawn) | > 66.1 µM | > 66.1 µM | –
14 | O=C(O)[C@H](NS(=O)(=O)c1ccc2ccccc2c1)c1ccccc1 | – | – | inactive
15 | CN1C(=O)C2(Nc3ccccc3N2)c2ccccc21 | > 70.8 µM | > 70.8 µM | –
16 | COc1ccc(N=Nc2c(C)c(C#N)c(=S)n(C3OC(COC(C)=O)C(OC(C)=O)C(OC(C)=O)C3OC(C)=O)c2-c2ccccc2)cc1 (stereo not drawn) | > 200 µM | 126 µM | –
17 | COc1cccc(/C=C2/S/C(=N/Nc3nc(C)c(C(C)=O)s3)NC2=O)c1O | > 200 µM | 32.4 µM | –
18 | CCSc1nc(-c2ccc(OC)cc2)c(C#N)c(=O)n1C1OCC(OC(C)=O)C(OC(C)=O)C1OC(C)=O (stereo not drawn) | > 200 µM | > 200 µM | –
19 | Cn1c(-c2ccccc2)cc(-c2cccs2)c1-c1ccsc1 | > 200 µM | 182 µM | –
20 | Cc1ccc(S(=O)(=O)N/N=C(\c2nc3ccc([N+](=O)[O-])cc3[nH]c2=O)C(O)c2ccc([N+](=O)[O-])cc2)cc1 (stereo not drawn) | > 126 µM | 112 µM | –
21 | COc1ccc(N2C(=O)C3c4[nH]c5ccccc5c4C4CCCCCCCC4C3C2=O)cc1 (stereo not drawn) | > 200 µM | 81.3 µM | –
22 | O=c1cc(-c2ccccc2)oc2cc(OCC(O)COc3ccc4c(=O)cc(-c5ccccc5)oc4c3)ccc12 | > 25.7 µM | > 25.7 µM | –

Row | SMILES | EC50 | IC50 | outcome
23 | CC(=O)O[C@@H]1O[Si](C(C)(C)C)(C(C)(C)C)[C@H](C)[C@H]1C | > 100 µM | > 100 µM | –
24 | C=CCOc1cc2c(c3oc(=O)cc(CCC)c13)[C@@H](O)[C@H](C)[C@@H](C)O2 | 6.61 µM | 13.5 µM | –
25 | CCOC(=O)C(C(=O)c1ccccc1)C(=O)c1ccccc1 | > 45.7 µM | > 45.7 µM | –
26 | C/C(O)=C(\C=N\C(=S)N=Nc1c(O)[nH]c2ccccc12)C(=O)Nc1ccccc1C | > 200 µM | > 200 µM | –
27 | Cn1cnc([N+](=O)[O-])c1Sc1ncnc2nc[nH]c12 | > 200 µM | 10.7 µM | –
28 | CC1(C)CNC[C@](C)(OCCO)C(=O)[N-]C(C)(C)CNC[C@@](C)(OCCO)C(=O)[N-]1.[Ni+2] | > 200 µM | 182 µM | –
29 | O=C(O)c1ccccc1C(=O)Nn1cnnc1 | > 200 µM | > 200 µM | –
30 | O=C(Nc1cccc(Cl)c1)C(=O)C(C(=O)c1ccc2ccccc2c1)C1OC(=O)c2ccccc21 (stereo not drawn) | > 74.1 µM | 33.9 µM | –
31 | O=P(O)(Cc1ccccc1)OCC1(O)OCC(O)C(O)C1O (stereo not drawn) | > 200 µM | > 200 µM | –
32 | CCOC(=O)C(=CNC(=S)Nc1cc(C)ccc1C)C(=O)OCC | > 200 µM | > 200 µM | –
33 | Nc1ccc2c(c1)Oc1ccc(N)cc1O2 | > 200 µM | > 200 µM | –
34 | ClC(c1ccccc1)(c1ccccc1)c1cccc(-c2cccc(C(Cl)(c3ccccc3)c3ccccc3)c2)c1 | – | – | inactive
35 | O=C1c2ccccc2N2Oc3ccccc3C12c1ccccc1 (stereo not drawn) | > 45.7 µM | > 45.7 µM | –
36 | O=C1OC[C@H](Cc2ccccc2)N1C(=O)[C@H]1NC(=S)OC1Cc1ccc(OCc2ccccc2)cc1 (stereo partly drawn) | – | – | inactive
37 | O=c1nc(/C=C/c2ccccc2Cl)cc2n1CCN2CCO | – | – | inactive
38 | Cc1nc2ccccc2c(=O)n1NC(=O)c1ccccc1O | > 200 µM | 38 µM | –
39 | CC1(C)CCCC2OC2CCC(C)(C)C1=O (stereo not drawn) | > 200 µM | > 200 µM | –
40 | Cc1ccccc1-c1c(N)nc(NC#N)nc1C(=O)Nc1ccccc1 | – | – | inactive
41 | COc1ccc2[nH]c3c(C)c4cc[n+](C)cc4c(C)c3c2c1 | > 20 µM | 0.417 µM | –
42 | CC(NC(=O)C(CCCCN)NC(=O)C(N)CC(=O)O)C(=O)NC(CO)C(=O)NC(Cc1ccc(O)cc1)C(=O)NC(CO)C(=O)NC(C(=O)NC(CC(N)=O)C(=O)NC(Cc1cnc[nH]1)C(=O)O)C(C)O (stereo not drawn) (H-DKASYSTNH-OH; configuration not given here) | > 49 µM | > 49 µM | –
43 | COc1nn(C)c(=O)c2cccnc12 | > 1100 µM | 676 µM | –
44 | COC1=CC(=O)C=C(OC)C1=O | > 214 µM | 1.12 µM | –

Row | SMILES | EC50 | IC50 | outcome
45 | CC(C#N)NCc1ccc(C(C)NC(C)C#N)cc1 (stereo not drawn) | > 200 µM | > 200 µM | –
46 | CS1(C)=NC(=O)c2cc([N+](=O)[O-])ccc2N=1 | > 123 µM | > 123 µM | –
47 | Cc1nnc2n(c1=O)CCN2C | > 200 µM | > 200 µM | –
48 | CC(C)C1NC(=O)c2ccccc2S1 (stereo not drawn) | > 871 µM | 195 µM | –
49 | CC(C)(C)[Si](C)(C)OC[C@H]1O[C@@H](n2ccc(=O)[nH]c2=O)C[C@]12CCN(O)CO2 | > 200 µM | 105 µM | –
50 | O=C(/C=C/c1cc(O)c(O)cc1O)OCCc1ccccc1 | > 200 µM | 9.33 µM | –
51 | O=C(NCCN1CCOCC1)c1ccc(I)cc1 | > 200 µM | > 200 µM | –
52 | [O]=[Sb]([OH])([OH])[c]1ccccc1 | > 200 µM | 77.6 µM and > 200 µM | –
53 | CCCCN(CCCC)CC(C(=O)Nc1ccc([N+](=O)[O-])cc1[N+](=O)[O-])/C(C)=N\NC(=O)c1ccncc1 (stereo not drawn) | > 56.2 µM | > 56.2 µM | –
54 | O=S(=O)(O)c1ccc(N/N=C/c2ccccc2)cc1 | > 832 µM | 794 µM | –
55 | c1ccc(N=c2sc3ccccc3nc2Nc2ccccc2)cc1 | > 200 µM | 123 µM | –
56 | COc1cc2nncc(SCc3ccccc3Cl)c2cc1OC | 1.45 µM | 51.3 µM | –
57 | COc1cc(-c2ccc(N=Nc3cc(S(=O)(=O)O)c4ccccc4c3O)c(OC)c2)ccc1N=Nc1cc(S(=O)(=O)O)c2ccccc2c1O | 135 µM | 141 µM | –
58 | C1CSCCSS[C@@H]2CCCCC2SC1 (stereo partly drawn) | > 33.9 µM | > 33.9 µM | –
59 | CC(=O)C(CCC#N)(CCC#N)CCC#N | > 200 µM | > 200 µM | –
60 | O=C(N=Nc1cc(Cl)ccc1Cl)NNc1cc(Cl)ccc1Cl | > 200 µM | 11.2 µM | –
61 | O=C1N(CO)C2C(N1CO)N(CO)C(=O)N2CO (stereo not drawn) | > 200 µM | 33.1 µM and 102 µM | –
62 | Cc1ccc(S(=O)(=O)N/N=C\c2c3ccccc3[n+](C)c3ccccc23)cc1 | – | – | inactive
63 | CC(C)(C)OC(=O)/N=C/c1c(O)c2ccccc2oc1=O | > 200 µM | 30.2 µM | –
64 | COc1cc(/C=C/C(=O)CC(=O)/C=C/c2ccc(O)c(O)c2)ccc1O | > 200 µM | 6.76 µM | –
65 | Cc1cc(C)c(O)c(CN2CCN(C(C)C)CCN(C(C)C)CC2)c1 | > 47.9 µM | 13.8 µM | –
66 | CC(=O)Nc1cc2ccc(C)nc2c2nc(C)ccc12.CC(=O)Nc1cc2ccc(C)nc2c2nc(C)ccc12.O=C1OC(C(O)C[O-])C(O)=C1O.[Cu+] | > 12.6 µM | 2.09 µM | –

Row | SMILES | EC50 | IC50 | outcome
67 | CC1=C2C3=C(C)C(=O)C(C)(C)CC[C@@]3(C)[C@]2(C)CCC(C)(C)C1=O | > 75.9 µM | > 75.9 µM | –
68 | O=C1C(=Cc2ccc(Cl)cc2)C(=O)c2ccccc21 | > 17.4 µM | > 17.4 µM | –
69 | CN(CCNC(=O)c1cc(-c2ccccc2)nc2ccccc12)CCNC(=O)c1cc(-c2ccccc2)nc2ccccc12 | > 20 µM | 10.5 µM | –
70 | O=C1CN(N2C(=O)CSC2C23CC4CC(CC(C4)C2)C3)C(=O)CN1c1ccccc1 (stereo not drawn) | > 151 µM | > 151 µM | –
71 | CC(C)C(OC(=O)c1ccc(NCc2cc(O)ccc2O)cc1)C(C)C | > 200 µM | 1.41 µM | –
72 | Fc1ccccc1-c1nn2c(C34CC5CC(CC(C5)C3)C4)nnc2s1 | > 200 µM | > 200 µM | –
73 | CC1(C)C2CCC1(CS(=O)O)C(=O)C2.[Ag] (stereo not drawn) | > 398 µM | 7.94 µM | –
74 | COC(=O)C1CCC(=O)NCCCCC(NC(=O)C(N)CC(=O)O)C(=O)N1 (stereo not drawn) (H-Asp-Lys-Glu-OMe; lactam 2-3; configuration not given here) | > 200 µM | 91.2 µM | –
75 | COc1cc(C=Nc2cc(Cl)c(N=O)c(Cl)c2)ccc1N(CCCCl)CCCCl | 5.25 µM | 22.4 µM | –
76 | CCOC(=O)c1c(N)sc2c1CCCC2 | > 200 µM | 56.2 µM | –
77 | Clc1ccc(-c2c(C3=NCCN3)nnn2-c2ccccc2)cc1 | > 214 µM | 174 µM | –
78 | O=c1oc(-c2ccccc2)cn1-c1ccccc1 | – | – | inactive
79 | N=c1c2ccccc2nnn1Cc1ccccc1 | > 178 µM | > 178 µM | –
80 | O=C1C=CC[C@H]2O[C@@H](COC(=O)Cc3ccccc3)C[C@H]2O1 | > 200 µM | 34.7 µM | –
81 | Cc1cccc2c1NC(c1c(C)[nH]c3ccccc13)C2 (stereo not drawn) | – | – | inactive
82 | CC(C)c1cccc2sc(NC(=O)C(=O)C(C#N)c3cccc4ccccc34)nc12 (stereo not drawn) | – | – | inactive
83 | O=S(=O)(O)c1ccc2c(N=NNc3ccc(NN=Nc4cccc5cc(S(=O)(=O)O)ccc45)cc3)cccc2c1 | > 759 µM | 457 µM | –
84 | N#Cc1sc2c(c1OC(=O)c1ccc(Cl)cc1)c(=O)n(-c1ccccc1)c(=S)n2-c1ccccc1 | > 200 µM | 1.2 µM | –
85 | CCCC(=O)c1c(NOC2OCC(OC(C)=O)C(OC(C)=O)C2OC(C)=O)nc(OC)n(C)c1=O (stereo not drawn) | > 14.5 µM | > 14.5 µM | –
86 | OC1(c2ccccc2)CSC2=Nc3ccccc3C3CCN1N23 (stereo not drawn) | > 200 µM | 36.3 µM | –
